“Also recorded” adds a separate entry of the source. Read-outs that look alike come from different tables or passages of the source.
Assays:
HD-MB03 cells [1] = assay: Cell viability MTT assay in HD-MB03 cells; assay type: cell-based, human
Description: For cell viability assay, DAOY cells from SHH-MB group and HD-MB03 from Group 3 MB were exposed to new analogs in a range of concentrations. In brief, cells were seeded in 96-well plate with a density of 3×10^3 cells/well density for 16 hours. Cells were then treated with different drug concentrations for 48-72 hours. MTT assay reagent was added to the cells and after incubation for 4 hours, formazan crystals were dissolved in 200 μL DMSO, and the absorbance was determined using a microplate reader (Molecular Devices Me5). The IC50 was determined by nonlinear least square regression by performing each experiment in triplicate.

MB cells = assay: Scratch (wound) cell migration assay; assay type: cell-based, human; conditions: 0 to 24 hours, vs untreated MB cells
Description: Regarding the cell migration, scratch distances and width closure were measured between images from time 0 to 24 hours. After 24 hours, the untreated MB cells migrated and covered approximately 50% to 60% of the wound area quantified at time zero. […] Initial wound edges marked initial cell migration and were used to identify the decrease in wound width throughout the experiment. Migration distances were shown separately during the period of 0-24 hours. A significant difference in migration distance was found for the treated group compared to the control, while no difference in motility was found within the treated groups.

DAOY cells [2] = assay: Cell cycle analysis in DAOY cells; assay type: cell-based, human; conditions: 5 μM, 48 hours; control 52.8%
Excerpt: (§1) FIGS. 3A-3F show the effect of MDP5 treatment on cell cycle analysis, induction of apoptosis, and colony formation assay in MB cells. […] Histograms show the quantitative analysis of cell cycle assay for DAOY (FIG. 3A) and HD-MB03 (FIG. 3B) cells (n=5; mean±S.D., p<0.05). […] FIG. 3C provides images of cells treated with the indicated compounds. […] FIGS. 3D and 3E provide graphs of the apoptotic assay showing higher numbers of apoptotic cells in MDP5 treated groups (n=5; mean±S.D.; p<0.05). FIG. 3F provides a graph of the relative expression of BCL2 and MYCN target genes after treatment, as determined by RT-PCR.
(§2) Cell cycle distribution was determined in proliferating MB cells. […] Cells were harvested with 0.25% EDTA-free trypsin (Gibco) and washed twice in ice-cold PBS. Control and treated cells (0.1×10^6) were stained with FxCycle™ PI/RNase Staining Solution (ThermoFisher Scientific) and analyzed for DNA content via flow cytometry.

HD-MB03 cells [3] = assay: Cell cycle analysis in HD-MB03 cells; assay type: cell-based, human; conditions: 5 μM, 48 hours; control 44.7%
Excerpt: as §1, §2

DAOY cells [4] = assay: Annexin V/PI apoptosis assay in DAOY cells; assay type: cell-based, human; conditions: 48 hours of treatment; untreated 25.61%
Description: For apoptosis assay, the cells were collected as above and stained with 500 μL 1× binding buffer containing 5 μL annexin V-FITC and 10 μL propidium iodide (PI) in the dark for 5 minutes. Flow cytometry (FACSCalibur™ cytometer, BD Biosciences) was performed to quantify and calculate the cell apoptosis rate. AV-FITC values were set horizontally, and PI values were set as vertical axes. All experiments were performed in triplicate.

[5] = tested on: DAOY and HD-MB03 spheroids; assay: Tumor spheroid live/dead assay; assay type: cell-based, human; conditions: 5.0 μM, 7 days
Description: Tumor spheroids were formed using MB cells following the method described (Bhattarai, et al. (2021) J. Control. Release 329:585-597). For tumor spheroids assay, 1500 and 500 DAOY and HD-MB03 cells, respectively, were suspended in 100 μL media and seeded in ultra-low attachment (ULA) 96-well plate for a week and 50 μL of media was replaced by fresh media every third day and spheroid size was tracked under fluorescent microscope. […] After 7 days of the treatment period, spheroids were stained with Calcein AM (2 μM) and ethidium homodimer-1 (3 μM) (LIVE/DEAD™; L3224) to check the live/dead cells. Images were taken by confocal laser microscope (Zesis LSM 710) with 10× magnification at 40 μm depth.

ONS-76 cells = assay: Side population (SP) assay; assay type: cell-based; conditions: 30 minutes preincubation; control 4.57%
Description: After washing thrice with staining buffer, 1×10^6 cells were stained with 5 μg/mL of Hoechst 33342 (Thermo Scientific; 62,249) for 1 hour in an incubator with occasional shaking every 20 minutes. The PI solution 5 μL was added to exclude dead cells and analyzed with flow cytometry (LSRII, BD Biosciences).

[6] = tested on: DAOY and HD-MB03 cell-generated tumors; assay: Subcutaneous MB tumor xenograft model; assay type: in vivo; conditions: for tumor growth / tumor burden: 15 mg/kg dose, vs vehicle treated control
Description: All the animal-related experiments were performed according to the Institutional Animal Care and Use Committee (IACUC) of the University of Nebraska Medical Center's approved protocol and met federal guidelines. Subcutaneous and orthotopic xenograft models were generated in this study. For establishing the xenograft model, DAOY cells (1×10^6) were injected into the right flank of 8-10 weeks old male and female mice. Tumor growth was measured non-invasively by using vernier calipers. For both measurements, tumor volumes were calculated by using the following formula: Volume=(Length×Width^2)/2.
A total of seven injections were given, and the mouse body weights were measured before every injection. The tumor growth was monitored by calipers in the case of the xenograft model and by IVIS imaging for the orthotopic model. For histological examination, the major organs of representative mice from each animal group were dissected and stained with H&E. Tissues after being fixed with 10% paraformaldehyde solution for 24 hours were embedded in 5 μm thick sections of paraffin, and were stained for different proteins. Stained slides were imaged at 40× magnification using an iScan HT Slide Scanner (Ventana Medical Systems, Inc, AZ).

| Compound | IC50 (HD-MB03 cells [1]; Homo sapiens, HD-MB03, 48-72 hours, read-out: IC50 in HDMB-03 cells (unit printed M)) | cell migration into wound area (MB cells) | cells in the G1 phase, DAOY (DAOY cells [2]) | cells in the G1 phase, HD-MB03 (HD-MB03 cells [3]) | percentage of apoptotic cells, DAOY (DAOY cells [4]) | cell viability of tumor spheroids [5] | size / formation of tumor spheroids ([5]; vs DMSO-treated control) | percentage of SP proportion (ONS-76 cells) | tumor growth / tumor burden [6] | toxicity / tolerability by body weight ([6]; 20 mg/kg i.v. every third day) | histologic examination of major organs (liver, lung, spleen, heart, kidneys) ([6]; 20 mg/kg, after completion of treatment) | tumor growth (tumor volume) ([6]; 20 mg/kg, vs vehicle/control group) | H&E staining and Ki-67 IHC of tumors ([6]; DAOY and HD-MB03 generated tumors) | tolerability by body weight and histological examination of vital organs ([6]; tested dose of b195 (15 mg/kg), vs vehicle control) | IC50 (HD-MB03 cells [1]; 48-72 hours, read-out: IC50 in HD-MB03 cells) | IC50 (HD-MB03 cells [1]; Homo sapiens, HD-MB03, 48-72 hours, read-out: IC50 in HD-MB03 cells) |
| --- | --- | --- | --- | --- | --- | --- | --- | --- | --- | --- | --- | --- | --- | --- | --- | --- |
| O=c1cc(N2CCOCC2)oc2c(-c3ccc4c(c3)OCCO4)cccc12 [MDP5, 8-(2,3-dihydrobenzo [b][1,4]dioxin-6-yl)-2-morpholino-4H-chromen-4-one] | 5.14 µM | lesser migration | 73.2% | 52.2% | 70.35% | significantly decreased | decreased the tumor spheroid formation in both MB cells | 0.9% | significant inhibition of tumor growth | no sign of toxicity; also recorded: well tolerated (no bodyweight change) | did not demonstrate toxicity | significantly affected tumor growth; also recorded: reduced tumor growth compared to the control group | suppressed cell proliferation and decreased tumor burden | well tolerated | – | – |
| O=c1cc(N2CCOCC2)oc2c(-c3ccc4c(c3)OCCO4)csc12 [SF2523, reference compound] | – | lesser migration | 73.1% | 58.9% | 56.50% | significantly decreased | – | 2.57% | significant inhibition of tumor growth | – | – | – | – | – | 5.14 µM | – |
| O=C(/C=C/N1CCOCC1)c1cccc(-c2cc3c(cc2Br)OCCO3)c1O [MDP1, (E)-1-(3-(7-bromo-2,3-dihydrobenzo [b][1,4]dioxin-6-yl)-2-hydroxyphenyl)-3-morpholinoprop-2-en-1-one] | – | lesser migration | 40.1% | 26.2% | 61.31% | – | – | 0.7% | significant inhibition of tumor growth | – | – | – | – | – | – | 5.56 µM |
